Laboratory results taken from patent US6469057B1, “Methods for in vivo reduction of free radical levels and compositions useful therefor” (MCW Research Foundation, Inc., priority 1995, dated 2002).
“Also recorded” adds a separate entry of the source.

How the values were obtained:
[1] = tested on: NO; experiment: Ex vivo EPR measurement of [(MGD)2/Fe-NO] levels in the urine of normal mice
Protocol: Normal mice housed in a restraining tube were injected subcutaneously with 0.4 ml of the [(MGD)2/Fe] complex (326 mg/Kg of MGD and 34 mg/Kg of FeSO4). After 2 hours, the animals were sacrificed and the urine samples were collected from the urinary bladder. The urine sample, which was dark brown (characteristic of the presence of [(MGD)2/Fe] complex), was transferred to a quartz flat cell for EPR measurement. The spectra were recorded at 22° C. with an X-band EPR spectrometer, operating at 9.5 GHz. Instrument settings include 100-G field scan, 4-min scan time, 0.5-s time constant, 2.5-G modulation amplitude, 100-KHz modulation frequency and 100-mW microwave power. The concentrations of the [(MGD)2/Fe—NO] complex in the urine samples were calculated by comparing the signal intensities obtained from the samples to the signal intensity of a standard solution containing 0.1 mM of the [(MGD)2/Fe—NO] complex.
For inhibition experiments, mice were injected intraperitoneally with 50 mg/kg NMMA in saline immediately after the injection of the [(MGD)2/Fe] complex. In other experiments, mice were injected intravenously with 3 mg/kg dexamethasone in saline about 1.5 h before the injection of the [(MGD)2/Fe] complex. […] Acetylcholine chloride (Sigma) in saline was freshly prepared prior to subcutaneous injection at a dose of 67 mg/kg.
At 2 h after subcutaneous injection of an aliquot (0.4 ml) of the [(MGD)2/Fe] complex (326 mg/Kg of MGD and 34 mg/Kg of FeSO4) into normal mice (A) (and also in the presence of NMMA (50 mg/kg) (B), or of dexamethasone (3 mg/kg) (C)), the animals were sacrificed and the urine samples collected and transferred to a quartz flat cell for X-band (9.5 GHz) EPR measurement at 22° C.

[2] = tested on: NO; experiment: Ex vivo EPR measurement of [(MGD)2/Fe-NO] levels in the urine of LPS-treated mice; settings: for [(MGD)2/Fe-NO] present in LPS-treated mouse urine: urine 2 h later
Protocol: After 2 h, the mouse was sacrificed and the urine sample was collected from the urinary bladder, and immediately transferred to a quartz flat cell for X-band EPR measurement as described above in Example 2B. Inhibition experiments with NMMA or dexamethasone were performed as described above in Example 2A, except that the mice were treated with LPS prior to following the protocols for NO inhibition experiments. The procedures for S-band EPR measurement of wet tissues and blood samples were as described previously (Lai and Komarov, supra).
Thus, at 6 h after LPS treatment, mice were injected with the [(MGD)2/Fe] complex, with and without i.p. injection of NMMA (50 mg/kg). The mice were sacrificed at 2 h after injection of the [(MGD)2/Fe] complex. The urine samples were collected and the EPR measurement was carried out at 22° C.

| Compound | effect on the [(MGD)2/Fe-NO] EPR signal in urine ([1]; normal mice, NMMA 50 mg/kg i.p., dexamethasone 3 mg/kg i.v. pretreatment) | effect on signal intensity of [(MGD)2/Fe-NO] in the urine of LPS-treated mice ([2]; NMMA 50 mg/kg i.p. at 6 h after LPS) | [(MGD)2/Fe-NO] present in LPS-treated mouse urine ([2]; NMMA 50 mg/kg i.p. at 6 h after LPS just prior to [(MGD)2/Fe]) | [(MGD)2/Fe-NO] present in LPS-treated mouse urine ([2]; NMMA 100 mg/kg i.p. at 6 h after LPS just prior to [(MGD)2/Fe]) | [(MGD)2/Fe-NO] present in mouse urine ([1]; mouse, in vivo) | increase in urinary [(MGD)2/Fe-NO] levels ([1]; normal mice, acetylcholine 67 mg/kg s.c.) [fold] |
| --- | --- | --- | --- | --- | --- | --- |
| CNC(=N)NCCC[C@H](N)C(=O)O [NMMA, N^G-monomethyl-L-arginine] | markedly reduced | markedly reduces the signal intensity; also recorded: markedly reducing the signal intensity | 3.6 ± 0.9 (4) | 7.3 ± 2.2 (3) |  |  |
| CC(=O)OCC[N+](C)(C)C.[Cl-] [Acetylcholine, acetylcholine chloride] |  |  |  |  | 3.9 ± 0.8 (3) μM | 3 |
